Results from patent US11337976B2 (Plexxikon Inc., priority 2011, dated 2022).

Test system: A375 melanoma cells (B-Raf V600E mutation)
Experiment: A375 (A375_P-ERK) cell activity / cell growth inhibition assay
Type: cell-based, human
Settings: Homo sapiens, A-375; A375 cells (text: A375_P-ERK)

Row | SMILES | IC50
1 | CCN(C)S(=O)(=O)Nc1ccc(F)c(C(=O)c2c[nH]c3ncc(-c4cncc(C(C)(C)O)c4)cc23)c1F [P-0306, 3-[3-[[ethyl(methyl)sulfamoyl]amino]-2,6-difluoro-benzoyl]-5-[5-(1-hydroxy-1-methyl-ethyl)-3-pyridyl]-1H-pyrrolo[2,3-b]pyridine] | > 1 µM
2 | CCCN(C)S(=O)(=O)Nc1ccc(F)c(C(=O)c2c[nH]c3ncc(-c4cnc(OC)nc4)cc23)c1F [P-0116, 3-[2,6-difluoro-3-[[methyl(propyl)sulfamoyl]amino]benzoyl]-5-(2-methoxypyrimidin-5-yl)-1H-pyrrolo[2,3-b]pyridine] | < 1 µM
3 | CCC(C)S(=O)(=O)Nc1cccc(C(=O)c2c[nH]c3ncc(-c4ccc(C5(C#N)CC5)cc4)cc23)c1F (stereo not shown) [P-0227, N-[3-[5-[4-(1-cyanocyclopropyl)phenyl]-1H-pyrrolo[2,3-b]pyridine-3-carbonyl]-2-fluoro-phenyl]butane-2-sulfonamide] | < 1 µM
4 | O=C(c1c(F)ccc(NS(=O)(=O)N2CCCC2)c1F)c1c[nH]c2ncc(-c3cnc(N4CCC4)nc3)cc12 [P-0269, N-[3-[5-[2-(azetidin-1-yl)pyrimidin-5-yl]-1H-pyrrolo[2,3-b]pyridine-3-carbonyl]-2,4-difluoro-phenyl]pyrrolidine-1-sulfonamide] | < 1 µM
5 | CCN(C)S(=O)(=O)Nc1cccc(C(=O)c2c[nH]c3ncc(-c4ccc(F)cc4)cc23)c1F [P-0034] | < 1 µM
6 | CCN(C)S(=O)(=O)Nc1cccc(C(=O)c2c[nH]c3ncc(-c4cnc(OC)nc4)cc23)c1F [P-0020] | < 1 µM
7 | CN(C)S(=O)(=O)Nc1cccc(C(=O)c2c[nH]c3ncc(-c4cncc(C#N)c4)cc23)c1F [P-0098, 5-(5-cyano-3-pyridyl)-3-[3-(dimethylsulfamoylamino)-2-fluoro-benzoyl]-1H-pyrrolo[2,3-b]pyridine] | < 1 µM
8 | CCC(C)S(=O)(=O)Nc1cccc(C(=O)c2c[nH]c3ncc(-c4cnc(C5CC5)nc4)cc23)c1F (stereo not shown) [P-0228, N-[3-[5-(2-cyclopropylpyrimidin-5-yl)-1H-pyrrolo[2,3-b]pyridine-3-carbonyl]-2-fluoro-phenyl]butane-2-sulfonamide] | < 1 µM
9 | CN1CCN(c2ncc(-c3cnc4[nH]cc(C(=O)c5c(F)ccc(NS(=O)(=O)N6CCCC6)c5F)c4c3)cn2)CC1 [P-0260, N-[2,4-difluoro-3-[5-[2-(4-methylpiperazin-1-yl)pyrimidin-5-yl]-1H-pyrrolo[2,3-b]pyridine-3-carbonyl]phenyl]pyrrolidine-1-sulfonamide] | < 1 µM
10 | CC(C)c1ncc(-c2cnc3[nH]cc(C(=O)c4cccc(NS(=O)(=O)N5CCCC5)c4F)c3c2)cn1 [P-0047, N-[2-fluoro-3-[5-(2-isopropylpyrimidin-5-yl)-1H-pyrrolo[2,3-b]pyridine-3-carbonyl]phenyl]pyrrolidine-1-sulfonamide] | < 1 µM
11 | CCC(C)S(=O)(=O)Nc1cccc(C(=O)c2c[nH]c3ncc(-c4cnc(C(C)C)nc4)cc23)c1F (stereo not shown) [P-0229, N-[2-fluoro-3-[5-(2-isopropylpyrimidin-5-yl)-1H-pyrrolo[2,3-b]pyridine-3-carbonyl]phenyl]butane-2-sulfonamide] | < 1 µM
12 | CCN(C)S(=O)(=O)Nc1ccc(F)c(C(=O)c2c[nH]c3ncc(C#N)cc23)c1F [P-0017, 5-cyano-3-[3-[[ethyl(methyl)sulfamoyl]amino]-2,6-difluoro-benzoyl]-1H-pyrrolo[2,3-b]pyridine] | < 1 µM
13 | CN(C)S(=O)(=O)Nc1cccc(C(=O)c2c[nH]c3ncc(-c4cnc(NC5CC5)nc4)cc23)c1F [P-0064, 5-[2-(cyclopropylamino)pyrimidin-5-yl]-3-[3-(dimethylsulfamoylamino)-2-fluoro-benzoyl]-1H-pyrrolo[2,3-b]pyridine] | < 1 µM
14 | CCN(C)S(=O)(=O)Nc1cccc(C(=O)c2c[nH]c3ncc(-c4ccc(Cl)cc4)cc23)c1F [P-0019] | < 1 µM
15 | CCN(C)S(=O)(=O)Nc1ccc(F)c(C(=O)c2c[nH]c3ncc(-c4cnc(N5CCCC5)nc4)cc23)c1F [P-0293, 3-[3-[[ethyl(methyl)sulfamoyl]amino]-2,6-difluoro-benzoyl]-5-(2-pyrrolidin-1-ylpyrimidin-5-yl)-1H-pyrrolo[2,3-b]pyridine] | < 1 µM
16 | CCN(C)S(=O)(=O)Nc1ccc(F)c(C(=O)c2c[nH]c3ncc(-c4cnc(C5CC5)nc4)cc23)c1F [P-0240, 5-(2-cyclopropylpyrimidin-5-yl)-3-[3-[[ethyl(methyl)sulfamoyl]amino]-2,6-difluoro-benzoyl]-1H-pyrrolo[2,3-b]pyridine] | < 1 µM
17 | CN(C1CC1)S(=O)(=O)Nc1cccc(C(=O)c2c[nH]c3ncc(-c4cnc(C5CC5)nc4)cc23)c1F [P-0249, 3-[3-[[cyclopropyl(methyl)sulfamoyl]amino]-2-fluoro-benzoyl]-5-(2-cyclopropylpyrimidin-5-yl)-1H-pyrrolo[2,3-b]pyridine] | < 1 µM
18 | O=C(c1cccc(NS(=O)(=O)N2CC[C@@H](F)C2)c1F)c1c[nH]c2ncc(-c3cnc(C4CC4)nc3)cc12 [P-0327, (3R)—N-[3-[5-(2-cyclopropylpyrimidin-5-yl)-1H-pyrrolo[2,3-b]pyridine-3-carbonyl]-2-fluoro-phenyl]-3-fluoro-pyrrolidine-1-sulfonamide] | < 1 µM
19 | CCN(C)S(=O)(=O)Nc1cccc(C(=O)c2c[nH]c3ncc(-c4ccc(C(C)(C)O)cc4)cc23)c1F [P-0104, 3-[3-[[ethyl(methyl)sulfamoyl]amino]-2-fluoro-benzoyl]-5-[4-(1-hydroxy-1-methyl-ethyl)phenyl]-1H-pyrrolo[2,3-b]pyridine] | < 1 µM
20 | CCCN(C)S(=O)(=O)Nc1cccc(C(=O)c2c[nH]c3ncc(-c4ccc(C5CC5)nc4)cc23)c1F [P-0114, 5-(6-cyclopropyl-3-pyridyl)-3-[2-fluoro-3-[[methyl(propyl)sulfamoyl]amino]benzoyl]-1H-pyrrolo[2,3-b]pyridine] | < 1 µM
21 | CCC(C)S(=O)(=O)Nc1cccc(C(=O)c2c[nH]c3ncc(-c4cnc(OC)nc4)cc23)c1F (stereo not shown) [P-0224, N-[2-fluoro-3-[5-(2-methoxypyrimidin-5-yl)-1H-pyrrolo[2,3-b]pyridine-3-carbonyl]phenyl]butane-2-sulfonamide] | < 1 µM
22 | CN(C)S(=O)(=O)Nc1cccc(C(=O)c2c[nH]c3ncc(-c4ccc(C(F)(F)F)nc4)cc23)c1F [P-0053, 3-[3-(dimethylsulfamoylamino)-2-fluoro-benzoyl]-5-[6-(trifluoromethyl)-3-pyridyl]-1H-pyrrolo[2,3-b]pyridine] | < 1 µM
23 | COc1ncc(-c2cnc3[nH]cc(C(=O)c4cccc(NS(=O)(=O)N(C)C5CC5)c4F)c3c2)cn1 [P-0025] | < 1 µM
24 | O=C(c1cccc(NS(=O)(=O)N2CCCC2)c1F)c1c[nH]c2ncc(-c3cnc(N4CCCC4)nc3)cc12 [P-0109, N-[2-fluoro-3-[5-(2-pyrrolidin-1-ylpyrimidin-5-yl)-1H-pyrrolo[2,3-b]pyridine-3-carbonyl]phenyl]pyrrolidine-1-sulfonamide] | < 1 µM
25 | CCN(C)S(=O)(=O)Nc1ccc(F)c(C(=O)c2c[nH]c3ncc(-c4cnc(N5CCC5)nc4)cc23)c1F [P-0277, 5-[2-(azetidin-1-yl)pyrimidin-5-yl]-3-[3-[[ethyl(methyl)sulfamoyl]amino]-2,6-difluoro-benzoyl]-1H-pyrrolo[2,3-b]pyridine] | < 1 µM
